As to `CC(C)=NOCc1nc2c(N)nc3cc(Br)ccc3c2s1` [Example 2, Acetone O-(4-amino-7-bromo[1,3]thiazolo[4,5-c]quinolin-2-ylmethyl)oxime], the melting point (as a rule, the temperature of the solid-liquid transition) lay in the range of 211 to 213 °C.
In the case of `CON=Cc1nc2c(N)nc3cc(Br)ccc3c2s1` [Example 3, 4-Amino-7-bromo[1,3]thiazolo[4,5-c]quinoline-2-carbaldehyde O-methyloxime] it was 262 to 264 °C; in that of `CON=Cc1nc2c(N)nc3cc(-c4cccc(NS(C)(=O)=O)c4)ccc3c2s1` [Example 139, N-{3-[4-Amino-2-(methoxyimino-methyl)-thiazolo[4,5-c]quinolin-7-yl]-phenyl}-methanesulfonamide], 254 to 256 °C; in that of `CC(C)=NOCc1nc2c(N)nc3ccccc3c2s1` [Example 1, Acetone O-[(4-amino[1,3]thiazolo[4,5-c]quinolin-2-yl)methyl]oxime], 152 to 153 °C.
In the case of `CON=Cc1nc2c(N)nc3cc(-c4ccccc4)ccc3c2s1` [Example 138, 4-Amino-7-phenyl-thiazolo[4,5-c]quinoline-2-carbaldehyde O-methyl-oxime] it was 259 to 261 °C.
